Laboratory results taken from ChEMBL document CHEMBL5329194, “Design, Synthesis, and Evaluation of 18F-Labeling CYP1B1 PET Tracer Based on 2-Phenylquinazolin” (Bioorg Med Chem Lett, 2023).

Experiments:
Assay type in all cases: ADME
Cytochrome P450 1A1 = biological target: T1, Cytochrome P450 1A1 (Homo sapiens, UniProt P04798); experiment: Inhibition of CYP1A1 (unknown origin)
T1 sequence (P04798 whole entry): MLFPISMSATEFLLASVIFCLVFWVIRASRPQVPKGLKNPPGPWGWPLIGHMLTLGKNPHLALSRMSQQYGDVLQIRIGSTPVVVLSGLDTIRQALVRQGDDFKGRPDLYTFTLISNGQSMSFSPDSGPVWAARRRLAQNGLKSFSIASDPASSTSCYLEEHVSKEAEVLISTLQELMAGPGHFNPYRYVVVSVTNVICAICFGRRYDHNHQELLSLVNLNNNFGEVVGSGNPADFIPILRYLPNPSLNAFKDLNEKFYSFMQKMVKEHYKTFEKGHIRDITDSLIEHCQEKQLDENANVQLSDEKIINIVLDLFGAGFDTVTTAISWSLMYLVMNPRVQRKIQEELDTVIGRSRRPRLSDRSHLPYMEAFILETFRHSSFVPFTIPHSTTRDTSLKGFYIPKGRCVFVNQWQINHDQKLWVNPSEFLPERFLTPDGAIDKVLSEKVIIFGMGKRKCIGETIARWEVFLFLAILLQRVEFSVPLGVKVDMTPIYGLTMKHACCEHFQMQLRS

Cytochrome P450 1A2 = biological target: T2, Cytochrome P450 1A2 (Homo sapiens, UniProt P05177); experiment: Inhibition of CYP1A2 (unknown origin)
T2 sequence (P05177 whole entry): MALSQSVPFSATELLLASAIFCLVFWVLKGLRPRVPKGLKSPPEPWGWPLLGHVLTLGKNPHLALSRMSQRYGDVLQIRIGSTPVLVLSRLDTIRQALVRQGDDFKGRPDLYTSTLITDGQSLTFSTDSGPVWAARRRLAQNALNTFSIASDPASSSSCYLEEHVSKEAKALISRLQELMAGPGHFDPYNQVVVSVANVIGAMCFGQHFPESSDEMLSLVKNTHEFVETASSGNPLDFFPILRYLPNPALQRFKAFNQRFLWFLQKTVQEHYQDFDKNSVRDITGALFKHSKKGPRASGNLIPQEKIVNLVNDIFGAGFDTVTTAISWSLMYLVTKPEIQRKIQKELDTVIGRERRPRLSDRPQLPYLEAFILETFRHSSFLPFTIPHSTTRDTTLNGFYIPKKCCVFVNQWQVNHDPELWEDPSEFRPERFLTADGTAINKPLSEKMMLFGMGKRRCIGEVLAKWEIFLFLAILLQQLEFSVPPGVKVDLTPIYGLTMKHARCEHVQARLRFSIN

CYP1A2 versus CYP1B1 = experiment: Selectivity ratio of IC50 for inhibition of CYP1A2 (unknown origin) to IC50 for inhibition of CYP1B1 (unknown origin); conditions: human; read-out: Ratio IC50
CYP1A1 versus CYP1B1 = experiment: Selectivity ratio of IC50 for inhibition of CYP1A1 (unknown origin) to IC50 for inhibition of CYP1B1 (unknown origin); conditions: human; read-out: Ratio IC50
Cytochrome P450 1B1 = biological target: T3, Cytochrome P450 1B1 (Homo sapiens, UniProt Q16678); experiment: Inhibition of CYP1B1 (unknown origin) by EROD assay
T3 sequence (Q16678 whole entry): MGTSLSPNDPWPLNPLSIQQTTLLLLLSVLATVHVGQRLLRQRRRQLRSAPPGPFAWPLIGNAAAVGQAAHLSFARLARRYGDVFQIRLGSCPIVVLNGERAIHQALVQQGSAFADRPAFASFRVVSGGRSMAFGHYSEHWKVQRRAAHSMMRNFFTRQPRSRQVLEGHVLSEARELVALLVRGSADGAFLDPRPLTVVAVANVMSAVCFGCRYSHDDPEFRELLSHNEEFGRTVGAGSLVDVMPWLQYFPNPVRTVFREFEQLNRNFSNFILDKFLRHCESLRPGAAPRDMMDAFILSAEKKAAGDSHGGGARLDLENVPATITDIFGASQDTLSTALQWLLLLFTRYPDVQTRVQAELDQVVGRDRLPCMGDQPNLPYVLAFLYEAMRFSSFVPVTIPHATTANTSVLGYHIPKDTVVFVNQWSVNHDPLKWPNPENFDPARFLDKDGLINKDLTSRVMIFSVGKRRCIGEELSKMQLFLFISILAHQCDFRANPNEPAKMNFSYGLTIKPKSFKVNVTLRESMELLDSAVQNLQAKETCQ

Row | IC50 (Cytochrome P450 1A1) [µM] | IC50 (Cytochrome P450 1A2) [µM] | IC50 (Cytochrome P450 1B1) [µM] | Structure (SMILES) | selectivity ratio (CYP1A2 versus CYP1B1) | selectivity ratio (CYP1A1 versus CYP1B1)
1 | > 1 | > 1 | 0.0473 | FCCOc1nc(-c2ccc(Br)cc2)nc2ccccc12 | > 21.1 | > 21.1
2 | 0.0642 |  |  | O=c1cc(-c2ccccc2)oc2c1ccc1ccccc12 [ALPHA-NAPHTHOFLAVONE] |  | 
3 | > 1 | > 1 | > 1 | Oc1nc(-c2ccc(F)cc2)nc2ccccc12 |  | 
